Measurements as given in publication PMC6115637 (Chemical Science, 2018).
Changes are numbered by the printed parent chain.

What was measured:
Format in all cases: cell-based
M4 receptor S116A = molecular target: T1, M4 receptor S116A (Homo sapiens, UniProt P08173, S116A); experiment: Split luciferase biosensor cAMP assay for Gi activation, M4 mutant S116A; conditions: M4 mutant S116A vs WT
T1 sequence (P08173 1-479 S116A): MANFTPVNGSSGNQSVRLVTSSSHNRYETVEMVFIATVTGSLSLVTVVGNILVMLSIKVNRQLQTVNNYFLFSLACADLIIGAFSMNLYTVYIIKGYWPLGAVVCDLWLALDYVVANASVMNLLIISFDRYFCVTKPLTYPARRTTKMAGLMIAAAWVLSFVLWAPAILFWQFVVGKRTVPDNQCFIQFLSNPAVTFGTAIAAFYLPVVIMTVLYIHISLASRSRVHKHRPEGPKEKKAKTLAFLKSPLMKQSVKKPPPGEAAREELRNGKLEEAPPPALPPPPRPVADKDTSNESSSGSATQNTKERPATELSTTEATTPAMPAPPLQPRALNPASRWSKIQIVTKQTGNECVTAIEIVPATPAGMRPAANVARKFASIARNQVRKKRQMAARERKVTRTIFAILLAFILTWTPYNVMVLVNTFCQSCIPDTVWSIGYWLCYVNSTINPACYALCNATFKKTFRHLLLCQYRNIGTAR

M4 receptor F409A = molecular target: T2, M4 receptor F409A (Homo sapiens, UniProt P08173, F409A); experiment: Split luciferase biosensor cAMP assay for Gi activation, M4 mutant F409A; conditions: M4 mutant F409A vs WT
T2 sequence (P08173 1-479 F409A): T1 sequence (P08173 1-479 S116A) with A116S, F409A

M4 receptor N445A = molecular target: T3, M4 receptor N445A (Homo sapiens, UniProt P08173, N445A); experiment: Split luciferase biosensor cAMP assay for Gi activation, M4 mutant N445A; conditions: M4 mutant N445A vs WT
T3 sequence (P08173 1-479 N445A): T1 sequence (P08173 1-479 S116A) with A116S, N445A

M4 receptor V120A = molecular target: T4, M4 receptor V120A (Homo sapiens, UniProt P08173, V120A); experiment: Split luciferase biosensor cAMP assay for Gi activation, M4 mutant V120A; conditions: M4 mutant V120A vs WT
T4 sequence (P08173 1-479 V120A): T1 sequence (P08173 1-479 S116A) with A116S, V120A

M4 receptor I81A = molecular target: T5, M4 receptor I81A (Homo sapiens, UniProt P08173, I81A); experiment: Split luciferase biosensor cAMP assay for Gi activation, M4 mutant I81A; conditions: M4 mutant I81A vs WT
T5 sequence (P08173 1-479 I81A): T1 sequence (P08173 1-479 S116A) with I81A, A116S

M4 receptor W413A = molecular target: T6, M4 receptor W413A (Homo sapiens, UniProt P08173, W413A); experiment: Split luciferase biosensor cAMP assay for Gi activation, M4 mutant W413A
T6 sequence (P08173 1-479 W413A): T1 sequence (P08173 1-479 S116A) with A116S, W413A

M4 receptor S119A = molecular target: T7, M4 receptor S119A (Homo sapiens, UniProt P08173, S119A); experiment: Split luciferase biosensor cAMP assay for Gi activation, M4 mutant S119A; conditions: M4 mutant S119A vs WT
T7 sequence (P08173 1-479 S119A): T1 sequence (P08173 1-479 S116A) with A116S, S119A

SMILES: CC(=O)OCC[N+](C)(C)C [ACh, acetylcholine]
- activity decrease compared to WT M4 receptor (M4 receptor S116A): 100 times
- decreased activity compared to WT M4 receptor (M4 receptor F409A): 4–14 fold
- decreased activity compared to WT M4 receptor (M4 receptor N445A): 4–14 fold
- change of EC50 compared to WT M4 receptor (printed: increased the EC50) (M4 receptor V120A): 16 fold
- activity decrease compared to WT M4 receptor (M4 receptor I81A): 100 times
- activity of M4 mutant towards ACh (M4 receptor W413A): completely inactive
- decreased activity compared to WT M4 receptor (M4 receptor S119A): 4–14 fold
